Patent EP0596449A2, “Serotonin receptor antagonists for treating myocardial ischemia” (E.R. SQUIBB & SONS, INC., priority 1992, dated 1994)
“Also recorded” adds a separate entry of the source. Marks after values point to notes of the source that are not given here.

Tests used:
[1] = test system: globally ischemic rat hearts; assay: Parachlorophenylalanine pretreatment of rats, then global ischemia/reperfusion of the isolated hearts; conditions: for time to contracture: parachlorophenylalanine pretreatment i.p., compared to vehicle, p<0.05, Figure 4
Method: (§1) To determine the effect of serotonin receptor agonists and antagonists, male Sprague-Dawley rats (450-550 g) were prepared as described below. The rats were anesthetized using 100 mg/kg sodium pentobarbital (i.p.). They were intubated and then treated with i.v. heparin (1000 U/kg). While being mechanically ventilated, their hearts were perfused in situ via retrograde cannulation of the aorta. The hearts were then excised and […] moved to a Langendorff apparatus where they were perfused with Krebs-henseleit bicarbonate buffer solution ((mM): 112 NaCI, 25 NaHC03, 5 KCI, 1.2 MgS04, 1 KH2P04, 1.25 CaC12, 2 pyruvate and 11.5 dextrose bubbled with 95% 02 - 5% C02) at a constant perfusion pressure (85 mm Hg). A water-filled latex balloon attached to a metal cannula was then inserted into the left ventricle and connected to a Statham pressure transducer for measurement of left ventricular pressure. The hearts were allowed to equilibrate for 15 min, at which time end diastolic pressure (EDP) was adjusted to 5 mm Hg and this balloon volume was maintained for the duration of the experiment. Pre-ischemia or pre-drug function, heart rate and coronary flow (extracorporeal electromagnetic flow probe) were then measured. Left ventricular developed pressure (LVDP) was calculated from the difference between left ventricular peak systolic pressure and EDP. Cardiac temperature was maintained throughout the experiment by submerging the hearts in 37 ° C buffer which was allowed to accumulate in a stoppered, heated chamber.
To determine if endogenous 5HT is mediating a pro-ischemic effect in isolated hearts, rats, prepared as described below were treated with parachlorophenylalanine. Parachlorophenylalanine depletes brain and peripheral 5HT by inhibition of tryptophan hydroxylase, the rate limiting step in 5HT synthesis. […] Male Sprague-Dawely rats (450-550 g) were injected with i.p. 105 mg/kg parachlorophenylalanine (n = 10) or its vehicle (water, n = 6) on three consecutive days. On the fourth day, the rats were anesthetized with 100 mg/kg sodium pentobarbital. The hearts were then excised and moved to an isolated heart apparatus as described above. The hearts were then subjected to 25 minutes to global ischemia and 30 minutes of reperfusion. Time to contracture, recovery of contractile function, coronary flow and cumulative LDH release were measured as described above.

[2] = test system: globally ischemic, isolated rat hearts; assay: Effect of 5HT, alone or with 5HT2 antagonist, on time to contracture and pre-ischemic function in isolated rat hearts; conditions: for Coronary Flow / HR / LVDP: pre-ischemic
Method: To determine the effect of serotonin receptor agonists and antagonists, male Sprague-Dawley rats (450-550 g) were prepared as described below. The rats were anesthetized using 100 mg/kg sodium pentobarbital (i.p.). They were intubated and then treated with i.v. heparin (1000 U/kg). While being mechanically ventilated, their hearts were perfused in situ via retrograde cannulation of the aorta. […] A water-filled latex balloon attached to a metal cannula was then inserted into the left ventricle and connected to a Statham pressure transducer for measurement of left ventricular pressure. […] Pre-ischemia or pre-drug function, heart rate and coronary flow (extracorporeal electromagnetic flow probe) were then measured. Left ventricular developed pressure (LVDP) was calculated from the difference between left ventricular peak systolic pressure and EDP. Cardiac temperature was maintained throughout the experiment by submerging the hearts in 37 ° C buffer which was allowed to accumulate in a stoppered, heated chamber. In another series of hearts, the effect of 5HT on the severity of ischemia was determined. […] Vehicle (0.1% DMSO) given 10 minutes before ischemia (n = 5). The hearts were subjected to global ischemia as described above and time to contracture determined. Reperfusion function and LDH release were not determined in this group.

[3] = test system: globally ischemic rat hearts; assay: Global ischemia (25 min) and reperfusion (30 min) in isolated perfused rat hearts, 5HT2 antagonists; conditions: for EC25: Rattus norvegicus, drug given 10 minutes before global ischemia, read-out: EC25 (concentration which increased the time to contracture 25% above vehicle group values)
Method: as §1
The model of global ischemia in isolated rat hearts was designed such that any protective effects observed are generally due to a direct cardioprotective effect and not to effects on cornonary or peripheral vascular tone. Also, because the hearts are perfused with an oxygenated buffer solution, platelets or the normal components of an inflammatory response are probably not important mediators of the ischemic/reperfusion injury observed in this model. […] Agents which exert their protective effects either through their effects on the peripheral or coronary vasculature such as nitrates or agents which act on blood or act on some component of the inflammatory response such as thromboxane A2 receptor antagonists are generally ineffective in this model.
The hearts were divided into the following groups: 1. Vehicle (0.1% DMSO) treatment beginning 10 minutes before the onset of ischemia (n = 8). 2. 0.3-10 µM ketanserin treatment beginning 10 minutes before the onset of ischemia (n = 4-5 per group). 3. 10 µM ketanserin given only during reperfusion (n = 4). 4. 0.1-10 µM cinanserin treatment beginning 10 minutes before global ischemia (n = 4-10). 5. 1-10 µM LY 53857 treatment beginning 10 minutes before the onset of ischemia (n = 4 per group). After 10 minutes of vehicle or drug pretreatment, the hearts were subjected to 25 minutes of total global ischemia which was initiated by shutting off the perfusate flow. Reperfusion was begun (without drug except in the case of group 3 above) and allowed to continue for 30 minutes. At this time, final measurements of EDP, LVDP and coronary flow were obtained. Cumulative LDH relase was measured in the reperfusate and was used as the index of cellular and membrane viability. In all hearts, the time to contracture during ischemia was measured and used as an index of cardioprotection during ischemia. Time to contracture is defined as the time (minutes) necessary for the first 5 mm Hg increase in EDP to occur during global ischemia. The data were expressed as the percent change in time to contracture from vehicle.

alpha, Adrenoceptors = assay: Methoxamine-induced contraction in rat aortic rings (alpha1 blocking potency); conditions: 45 minute incubation; Figure 5A
Method: In order to determine the alpha1 blocking potency of cinanserin, ketanserin and LY 53857, their effect on methoxamine induced aortic constriction was determined. Male Sprague-Dawley rats were sacrificed using C02. Aortic rings (3 mm in width) were cut, denuded of endothelium by gently rolling the rings on moistened filter paper, and mounted on stainless steel hooks in 20 mL muscle chambers containing oxygenated physiological salt solution (PSS) of the following composition (in mM): 118.4 NaCI, 4.7 KCI, 1.2 MgS04, 1.2 KH2P04, 1.9 CaC12, 25.0 NaHC03, 10.1 D-glucose, and 0.01 mM Na2EDTA maintained at 37 °C. The hooks were connected to Grass FT03C transducers for recording of isometric force development. The rings were stretched to 2 g preload during the equilibration period. During equilibration the rings were periodically stimulated with 24 mM KCI to determine contractility. The effectiveness of endothelial removal was confirmed by the absence of relaxation by 1 µM acetylcholine of a contraction in response to 0.01 µM phenylephrine.
Various concentrations of the test compounds were then added to individual baths and allowed a 45 minute incubation before cumulative concentration response curves for methoxamine (1 nM-30 /1.M) were obtained. Solvent controls were run in parallel. […]

[4] = i.p. 105 mg/kg on three consecutive days, 30 Min. Post-Ischemia
[5] = i.p. 105 mg/kg on three consecutive days, Pre-Ischemia
[6] = 30 μM 5HT + 1 μM Cinanserin, Post-Drug
[7] = 30 μM 5HT + 1 μM Cinanserin, Pre-Drug

N[C@@H](Cc1ccc(Cl)cc1)C(=O)O (racemic) [PCPA, parachlorophenylalanine]
Coronary Flow [1, 4]: 18±2^b mL/min/g
HR [1, 4]: 275±8^b beats/min
LVDP [1, 4]: 60±7^a,b mmHg
LDH Release ([1]; i.p. 105 mg/kg on three consecutive days, 30 Min. Post-Ischemia (during reperfusion)): 15±2^b u/g
Coronary Flow [1, 5]: 18 ± 1 mL/min/g
HR [1, 5]: 271±8 beats/min
LVDP [1, 5]: 128±11 mmHg
time to contracture ([1]; listed as Parachlorophenylalanine): significantly increased time to contracture
time to contracture ([1]; listed as parachlorophenylalanine): significantly incareased the time to contracture

NCCc1c[nH]c2ccc(O)cc12 [5HT, serotonin]
Coronary Flow ([2]; 1 μM 5HT, Post-Drug): 16 ± 1 mL/min/g
HR ([2]; 1 μM 5HT, Post-Drug): 276±5 beats/min
LVDP ([2]; 1 μM 5HT, Post-Drug): 141±3 mmHg
Coronary Flow ([2]; 1 μM 5HT, Pre-Drug): 16 ± 1 mL/min/g
HR ([2]; 1 μM 5HT, Pre-Drug): 273±7 beats/min
LVDP ([2]; 1 μM 5HT, Pre-Drug): 145±4 mmHg
Coronary Flow ([2]; 10 μM 5HT, Post-Drug): 20 ± 2 mL/min/g
HR ([2]; 10 μM 5HT, Post-Drug): 294±11 beats/min
LVDP ([2]; 10 μM 5HT, Post-Drug): 132±7 mmHg
Coronary Flow ([2]; 10 μM 5HT, Pre-Drug): 19 ± 2 mL/min/g
HR ([2]; 10 μM 5HT, Pre-Drug): 300±7 beats/min
LVDP ([2]; 10 μM 5HT, Pre-Drug): 135±4 mmHg
Coronary Flow ([2]; 30 μM 5HT, Post-Drug): 14 ± 1 mL/min/g
HR ([2]; 30 μM 5HT, Post-Drug): 319±20 beats/min
LVDP ([2]; 30 μM 5HT, Post-Drug): 103±11 mmHg
Coronary Flow ([2]; 30 μM 5HT, Pre-Drug): 16 ± 1 mL/min/g
HR ([2]; 30 μM 5HT, Pre-Drug): 281±15 beats/min
LVDP ([2]; 30 μM 5HT, Pre-Drug): 117±5 mmHg
Coronary Flow ([2]; 100 μM 5HT, Post-Drug): 15 ± 3 mL/min/g
HR ([2]; 100 μM 5HT, Post-Drug): 369±19^a,b beats/min
LVDP ([2]; 100 μM 5HT, Post-Drug): 88±8^a,b mmHg
Coronary Flow ([2]; 100 μM 5HT, Pre-Drug): 16 ± 2 mL/min/g
HR ([2]; 100 μM 5HT, Pre-Drug): 298±10 beats/min
LVDP ([2]; 100 μM 5HT, Pre-Drug): 121±8 mmHg
effect on the severity of ischemia (time to contracture) ([2]; 1 and 10 µM concentrations): without any measurable effect
time to contracture ([2]; at 30 and 100µM, compared to vehicle, p<0.05, Figure 3): significantly reduced time to contracture
time to contracture ([2]; at >30 µM): significantly decrease time to contracture

CN(C)CCCSc1ccccc1NC(=O)/C=C/c1ccccc1 [Cinanserin, cinanserin]
reperfusion LDH release ([3]; 1-10 µM, compared to vehicle, Figure 2A): Significant reductions in LDH
EC25 [3]: 1.6 µM
Coronary Flow [2, 6]: 18 ± 1 mL/min/g
HR [2, 6]: 340±11^a,b beats/min
LVDP [2, 6]: 122±5 mmHg
Coronary Flow [2, 7]: 19 ± 1 mL/min/g
HR [2, 7]: 297±9 beats/min
LVDP [2, 7]: 139±7 mmHg
effect on the pro-ischemic effect of 5HT (time to contracture) ([2]; 30 µM 5HT plus antagonist, both given 10 minutes before ischemia, Figure 3): completely abolished this pro-ischemic effect; also recorded: abolished the pro-ischemic effect of serotonin

CC(O)C(C)OC(=O)C1CC2c3cccc4c3c(cn4C(C)C)CC2N(C)C1 (stereo not drawn) [LY 53857]
Coronary Flow ([3]; 1 µM, 30 Min Post-Reperfusion): 12±1^a mL/min/g
HR ([3]; 1 µM, 30 Min Post-Reperfusion): 230±25 beats/min
LVDP ([3]; 1 µM, 30 Min Post-Reperfusion): 23±5^a mmHg
Coronary Flow ([3]; 1 µM, Pre-Ischemia, Post-Drug): 15 ± 1 mL/min/g
HR ([3]; 1 µM, Pre-Ischemia, Post-Drug): 257±6 beats/min
LVDP ([3]; 1 µM, Pre-Ischemia, Post-Drug): 132±6 mmHg
Coronary Flow ([3]; 1 µM, Pre-Ischemia, Pre-Drug): 17 ± 1 mL/min/g
HR ([3]; 1 µM, Pre-Ischemia, Pre-Drug): 270±5 beats/min
LVDP ([3]; 1 µM, Pre-Ischemia, Pre-Drug): 141±4 mmHg
Coronary Flow ([3]; 3 µM, 30 Min Post-Reperfusion): 13±1^a mL/min/g
HR ([3]; 3 µM, 30 Min Post-Reperfusion): 240±13 beats/min
LVDP ([3]; 3 µM, 30 Min Post-Reperfusion): 73±7^a,b mmHg
Coronary Flow ([3]; 3 µM, Pre-Ischemia, Post-Drug): 17 ± 1 mL/min/g
HR ([3]; 3 µM, Pre-Ischemia, Post-Drug): 265±8 beats/min
LVDP ([3]; 3 µM, Pre-Ischemia, Post-Drug): 144±6 mmHg
Coronary Flow ([3]; 3 µM, Pre-Ischemia, Pre-Drug): 17 ± 1 mL/min/g
HR ([3]; 3 µM, Pre-Ischemia, Pre-Drug): 274±5 beats/min
LVDP ([3]; 3 µM, Pre-Ischemia, Pre-Drug): 148±6 mmHg
Coronary Flow ([3]; 10 µM, 30 Min Post-Reperfusion): 15 ± 3 mL/min/g
HR ([3]; 10 µM, 30 Min Post-Reperfusion): 250±4 beats/min
LVDP ([3]; 10 µM, 30 Min Post-Reperfusion): 86±6^a,b mmHg
Coronary Flow ([3]; 10 µM, Pre-Ischemia, Post-Drug): 21 ± 3 mL/min/g
HR ([3]; 10 µM, Pre-Ischemia, Post-Drug): 252±12^a beats/min
LVDP ([3]; 10 µM, Pre-Ischemia, Post-Drug): 123±5 mmHg
Coronary Flow ([3]; 10 µM, Pre-Ischemia, Pre-Drug): 20 ± 3 mL/min/g
HR ([3]; 10 µM, Pre-Ischemia, Pre-Drug): 288±10 beats/min
LVDP ([3]; 10 µM, Pre-Ischemia, Pre-Drug): 130±5 mmHg
EC25 [3]: 6.1 µM
reperfusion LDH release ([3]; at 3 and 10 µM concentrations, Figure 2C): significantly reduced it

COc1cc2nc(N3CCN(C(=O)c4ccco4)CC3)nc(N)c2cc1OC [prazosin]
concentration from which the methoxamine-tension curve was shifted to the right (alpha, Adrenoceptors): 1 nM
